Results as given in ChEMBL document CHEMBL5727746, “Benzothiazol compounds and methods using the same for treating neurodegenerative disorders” (2020).

Target: Mast/stem cell growth factor receptor Kit (Homo sapiens, UniProt P10721)
Assay: Magnesium chloride (MgCl2), Manganese(II) chloride (MnCl2), Bovine serum albumin (BSA) and dimethylsulfoxide (DMSO) were purchased from Sigma-Aldrich.

Sequence of Mast/stem cell growth factor receptor Kit (P10721 whole entry): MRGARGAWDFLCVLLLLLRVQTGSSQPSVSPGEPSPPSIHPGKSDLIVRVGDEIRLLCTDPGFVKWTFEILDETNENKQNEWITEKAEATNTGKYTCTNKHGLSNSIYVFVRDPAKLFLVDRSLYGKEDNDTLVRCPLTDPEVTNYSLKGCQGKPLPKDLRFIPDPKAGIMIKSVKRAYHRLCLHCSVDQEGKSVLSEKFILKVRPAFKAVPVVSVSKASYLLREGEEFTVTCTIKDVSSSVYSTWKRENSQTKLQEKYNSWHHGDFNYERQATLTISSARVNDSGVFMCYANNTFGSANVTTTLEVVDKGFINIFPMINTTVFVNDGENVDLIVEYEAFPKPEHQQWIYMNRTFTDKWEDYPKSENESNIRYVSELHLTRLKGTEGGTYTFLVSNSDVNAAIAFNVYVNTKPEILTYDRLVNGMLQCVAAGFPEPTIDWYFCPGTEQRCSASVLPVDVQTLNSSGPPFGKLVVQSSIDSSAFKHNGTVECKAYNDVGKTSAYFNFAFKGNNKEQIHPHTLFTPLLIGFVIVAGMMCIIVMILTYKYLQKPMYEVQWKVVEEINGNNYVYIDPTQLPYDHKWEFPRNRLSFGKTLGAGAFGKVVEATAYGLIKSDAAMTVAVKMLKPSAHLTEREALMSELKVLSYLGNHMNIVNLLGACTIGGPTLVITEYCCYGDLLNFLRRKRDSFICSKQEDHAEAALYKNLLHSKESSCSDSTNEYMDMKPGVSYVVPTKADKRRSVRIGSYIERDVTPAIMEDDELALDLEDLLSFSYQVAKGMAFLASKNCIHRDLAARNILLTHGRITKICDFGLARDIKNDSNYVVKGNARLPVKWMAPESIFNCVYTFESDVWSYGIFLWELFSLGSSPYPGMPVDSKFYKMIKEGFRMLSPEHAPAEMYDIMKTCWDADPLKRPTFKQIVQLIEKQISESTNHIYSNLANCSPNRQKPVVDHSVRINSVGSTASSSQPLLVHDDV

IC50: > 10 µM
Compound: Cc1ccc2c(c1-c1ccc3nc(NC(=O)[C@@H]4C[C@@H]4F)sc3c1)CCN2
